From the supplement of paper PMC10307832

How the values were obtained:
Assay in all cases: relative viability (nuclei count vs DMSO), 5 days (fraction); higher = more cells survive
AGI-6780 + Lapatinib = compound: O=C(Nc1cccc(C(F)(F)F)c1)Nc1cc(S(=O)(=O)NC2CC2)ccc1-c1ccsc1 [AGI-6780] + CS(=O)(=O)CCNCc1ccc(-c2ccc3ncnc(Nc4ccc(OCc5cccc(F)c5)c(Cl)c4)c3c2)o1 [Lapatinib] (partner 2 µM)
Procedure, shortened: (§1)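 Nuclei were stained with Hoechst during a one-step fixation (final 0.05% Triton X-100, 1% formaldehyde, 1 ug/ml Hoechst) carried out 5 days after dosing, then counted on 4× images. The cells, lung cancer lines in 1536-well plates, had been dosed by pin tool the day after seeding with one drug alone or a fixed anchor-drug dose plus five library-drug doses (not always all listed) in √10 steps. Relative viability is the nuclei count in treated wells divided by that in vehicle wells, and each value is the median of duplicate plates.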

AGI-6780 + Crizotinib = compound: O=C(Nc1cccc(C(F)(F)F)c1)Nc1cc(S(=O)(=O)NC2CC2)ccc1-c1ccsc1 [AGI-6780] + C[C@@H](Oc1cc(-c2cnn(C3CCNCC3)c2)cnc1N)c1c(Cl)ccc(F)c1Cl [Crizotinib] (partner 1 µM)
Procedure, shortened: as §1

AGI-6780 + Tozasertib = compound: O=C(Nc1cccc(C(F)(F)F)c1)Nc1cc(S(=O)(=O)NC2CC2)ccc1-c1ccsc1 [AGI-6780] + Cc1cc(Nc2cc(N3CCN(C)CC3)nc(Sc3ccc(NC(=O)C4CC4)cc3)n2)n[nH]1 [Tozasertib] (partner 0.1 µM)
Procedure, shortened: as §1

AGI-6780 + Decitabine = compound: O=C(Nc1cccc(C(F)(F)F)c1)Nc1cc(S(=O)(=O)NC2CC2)ccc1-c1ccsc1 [AGI-6780] + Nc1ncn([C@H]2C[C@H](O)[C@@H](CO)O2)c(=O)n1 [Decitabine] (partner 2 µM)
Procedure, shortened: as §1

Row | Cell Line | relative viability (AGI-6780 + Lapatinib; first compound 0.08 µM) | relative viability (AGI-6780 + Lapatinib; first compound 0.253 µM) | relative viability (AGI-6780 + Lapatinib; first compound 0.8 µM) | relative viability (AGI-6780 + Lapatinib; first compound 2.53 µM) | relative viability (AGI-6780 + Lapatinib; first compound 8 µM) | relative viability (AGI-6780 + Crizotinib; first compound 0.08 µM) | relative viability (AGI-6780 + Crizotinib; first compound 0.253 µM) | relative viability (AGI-6780 + Crizotinib; first compound 0.8 µM) | relative viability (AGI-6780 + Crizotinib; first compound 2.53 µM) | relative viability (AGI-6780 + Crizotinib; first compound 8 µM) | relative viability (AGI-6780 + Tozasertib; first compound 0.08 µM) | relative viability (AGI-6780 + Tozasertib; first compound 0.253 µM) | relative viability (AGI-6780 + Tozasertib; first compound 0.8 µM) | relative viability (AGI-6780 + Tozasertib; first compound 2.53 µM) | relative viability (AGI-6780 + Tozasertib; first compound 8 µM) | relative viability (AGI-6780 + Decitabine; first compound 0.08 µM) | relative viability (AGI-6780 + Decitabine; first compound 0.253 µM) | relative viability (AGI-6780 + Decitabine; first compound 0.8 µM) | relative viability (AGI-6780 + Decitabine; first compound 8 µM) | relative viability (AGI-6780 + Decitabine; first compound 2.53 µM)
1 | NCI-H1993 | 0.91 | 0.86 | 0.804 | 0.749 | 0.933 | 0.899 | 0.913 | 0.931 | 0.84 | 1 | 0.547 | 0.588 | 0.623 | 0.464 | 0.536 | 0.593 | 0.57 | 0.595 | 0.688 | –
2 | NCI-H2009 | 0.952 | 0.889 | 0.976 | 0.917 | 0.959 | 1.02 | 1.09 | 0.976 | 1.01 | 1.05 | 0.605 | 0.725 | 0.845 | 0.701 | 0.683 | 0.396 | 0.365 | 0.428 | 0.382 | 0.322
3 | NCI-H2023 | 0.902 | 0.992 | 1 | 0.556 | 0.906 | 0.637 | 0.541 | 0.856 | 0.554 | 0.731 | 0.329 | 0.48 | 0.358 | 0.212 | 0.25 | 0.208 | 0.238 | 0.256 | 0.239 | 0.233
4 | NCI-H2085 | 0.787 | 0.771 | 0.843 | 0.724 | 0.78 | 0.817 | 1.01 | 0.926 | 0.933 | 0.927 | 0.755 | 0.736 | 0.779 | 0.809 | 0.61 | 0.574 | 0.534 | 0.523 | 0.537 | 0.474
5 | NCI-H2087 | 1.04 | 1.05 | 0.926 | 0.976 | 0.98 | 0.869 | 0.922 | 0.851 | 0.86 | 0.919 | 0.288 | 0.213 | 0.224 | 0.27 | 0.284 | 0.329 | 0.272 | 0.326 | 0.235 | 0.243
6 | NCI-H2126 | 0.782 | 0.798 | 0.73 | 0.586 | 0.757 | 1.1 | 1.01 | 1.03 | 1.02 | 1.05 | 0.82 | 0.838 | 0.89 | 0.726 | 0.857 | 0.577 | 0.615 | 0.562 | 0.582 | 0.501
7 | NCI-H2170 | 0.291 | 0.281 | 0.272 | – | 0.257 | 1.28 | 1.14 | 1.36 | – | 1.24 | 0.687 | 0.752 | 0.665 | 0.546 | 0.814 | 0.469 | 0.495 | 0.477 | 0.459 | –
8 | NCI-H2347 | 0.904 | 0.874 | 0.688 | 0.879 | 0.93 | 0.733 | 0.738 | 0.59 | 0.663 | 0.801 | 0.596 | 0.644 | 0.518 | 0.373 | 0.644 | 0.706 | 0.62 | 0.553 | 0.65 | 0.643
9 | NCI-H2405 | 1.05 | 1.08 | 0.938 | – | 1.1 | 0.839 | 0.801 | 0.583 | 0.827 | 0.829 | 0.813 | 0.728 | 0.565 | 0.766 | 0.661 | – | 0.781 | 0.662 | 0.66 | 0.626
10 | NCI-H3122 | 1.02 | 0.987 | 1.09 | 1.02 | 1.08 | 0.252 | 0.291 | 0.301 | 0.252 | 0.293 | 0.373 | 0.398 | 0.445 | 0.298 | 0.389 | 0.447 | 0.411 | 0.42 | 0.498 | 0.331
11 | PC-3 [JPC-3] | 0.467 | 0.513 | 0.451 | 0.416 | 0.48 | 1.01 | 0.928 | 0.971 | 0.994 | 0.977 | 0.943 | 0.859 | 0.94 | 0.858 | 0.813 | – | 0.797 | 0.868 | 0.775 | 0.802
12 | PC-14 | 0.312 | 0.348 | 0.312 | 0.314 | 0.291 | 0.902 | 0.867 | 0.971 | 0.851 | 0.928 | 0.57 | 0.583 | 0.658 | 0.582 | 0.569 | 0.22 | 0.226 | 0.295 | 0.198 | 0.217
13 | RERF-LC-KJ | 0.828 | 0.923 | 0.788 | 0.675 | 0.859 | 0.769 | 0.879 | 0.808 | 0.791 | 0.792 | 0.506 | 0.619 | 0.461 | 0.452 | 0.34 | 0.634 | 0.698 | 0.829 | 0.611 | 0.644
14 | SK-LU-1 | 0.928 | 0.857 | 0.683 | 0.863 | 1.14 | 1.01 | 0.904 | 0.629 | 0.936 | 0.878 | 0.309 | 0.318 | – | 0.279 | 0.327 | 0.73 | 0.63 | 0.567 | 0.572 | 0.583
15 | SK-MES-1 | 0.482 | 0.524 | 0.441 | 0.407 | 0.427 | 0.942 | 0.964 | 0.935 | 0.871 | 0.953 | 1.02 | 0.961 | 1 | 0.88 | 0.747 | 0.364 | 0.382 | 0.462 | 0.377 | 0.294
16 | SW 1573 | 1.3 | 1.29 | 1.08 | 0.957 | 1.06 | 0.786 | 0.883 | 0.912 | 0.681 | 0.815 | 0.175 | 0.261 | 0.254 | – | 0.139 | 0.6 | 0.449 | 0.65 | 0.493 | 0.417
17 | UMC-11 | 1.03 | 0.92 | 1.09 | – | 1.16 | 0.754 | 0.606 | 0.676 | – | 0.751 | 0.197 | 0.198 | 0.206 | – | 0.192 | 0.394 | 0.335 | 0.7 | 0.678 | –
